Measured values taken from patent publication US8012492B2, “In vitro model of latent mycobacterial infection” (University of Central Florida Research Foundation, Inc., priority 2007, dated 2011).

Experiments:
[1] = test system: WT-H37Rv; type: cell-based, Mycobacterium tuberculosis
[2] = test system: Mtb within TDM; type: cell-based, Mycobacterium tuberculosis

Row | SMILES | Rif resistant cells [1] | Rif-resistance [1] | Rif-resistant cells [1] | Development of Rif resistance, share of the Mtb population [2] | Resistance of Mtb recovered from TDM to antibiotics [2]
1 | CO[C@H]1/C=C/O[C@@]2(C)Oc3c(C)c(O)c4c(O)c(c(/C=N/N5CCN(C)CC5)c(O)c4c3C2=O)NC(=O)/C(C)=C\C=C\[C@H](C)[C@H](O)[C@@H](C)[C@@H](O)[C@@H](C)[C@H](OC(C)=O)[C@@H]1C [Rif, Rifampicin] | about 10% | up to 25% | about 0.03% | about 25% | –
2 | NNC(=O)c1ccncc1 [INH] | – | – | – | – | showed resistance to both antibiotics
